Source: article PMC6891768 (Marine Drugs, 2019)
Entries after “also recorded” stand apart in the source; their conditions may differ. Like-named read-outs stand apart in the source and are kept apart here.

Experiments:
[1] = tested on: vertebrate brain and neuromuscular nAChRs; test: Overall comparison of agonist potency and binding affinity at vertebrate nAChRs; conditions: for activity relative to that predicted if the one form was solely active: several vertebrate brain and neuromuscular nAChRs
Excerpt: PTHP was the only anabaseine analog that approached anabaseine in potency and binding affinity.
The ability of a variety of 2-(aryl)-1,4,5,6-tetrahydropyrmidines to block neuromuscular nAChRs and produce teratogenic effects in chick embryos was reported long ago [45, 46]. Some of these compounds were reported to be nAChR agonists. The only study of PTHP on neurons was that of Upshall et al. on leech Retzius cells. Our results also indicate that PTHP is a potent agonist at neuronal as well as neuromuscular nAChRs. […] For PTHP to be equipotent with anabaseine, based on the I^+ form being the only active form, its EC50 would need to be ~1/3 of the EC50 of anabaseine, since the anabaseine (I^+) is ~1/3 of its total concentration.

rat brain α4β2 nAChR = biological target: T1, rat brain α4β2 nAChR (Rattus norvegicus, UniProt P09483+P12390); test: [3H]-cytisine displacement binding, rat brain membranes
T1 construct: from tissue; host or cells: whole rat brain membranes

[2] = Ionization and ring-chain form distribution in water; format: physicochemical
Excerpt: Figure 2 Concentrations of the three major forms of anabaseine as a function of pH as determined by UV spectrophotometry. Left Ordinate: Concentration of each form expressed as % of the total anabaseine concentration. The red curve is the estimated cyclic imine concentration and the blue curve is the concentration of the cyclic iminium or the monocationic ammonium-ketone form of anabaseine (Assuming that KH = 1.0, the concentrations of these ionized forms are equal). Right ordinate: pH dependence of anabaseine inhibition of [^3H]-MCC binding to rat brain α4β2 receptors (Standard error bars included). Anabaseine inhibition (mean ± SEM) at each pH was the average of six replicate measurements.
Since the two monocationic forms show the same pH dependence and the same concentration when expressed as % of total anabaseine, another approach was required to assess their activities separately. We resorted to synthesizing and testing stable analogs that resemble the three anabaseine forms. […] The monocationic ammonium-ketone open-chain form analog selected was 5-methylamino-1-(3-pyridyl)-1-pentanone, MAPP, shown in Figure 1; it mainly ([…]) exists in their open-chain form in water at physiological pH; its cyclic imine or iminium form, N-methylanabaseine, is present in very small concentration (≤5%). […]

[3] = biological target: T2, Torpedo electric organ membrane nAChRs (Tetronarce californica, UniProt P02710+P02714+P02718); test: biochemical; format: binding
T2 construct: from tissue; host or cells: Torpedo electric organ membranes

[4] = biological target: T3, human α4β2 neuronal nAChR expressed in tsA201 cells (Homo sapiens, UniProt P17787+P43681); test: Activation of human α4β2 neuronal nAChR, membrane depolarization FlexStation assay; format: cell-based
T3 construct: expressed in transfected cells
T3 sequence (P43681 29-627): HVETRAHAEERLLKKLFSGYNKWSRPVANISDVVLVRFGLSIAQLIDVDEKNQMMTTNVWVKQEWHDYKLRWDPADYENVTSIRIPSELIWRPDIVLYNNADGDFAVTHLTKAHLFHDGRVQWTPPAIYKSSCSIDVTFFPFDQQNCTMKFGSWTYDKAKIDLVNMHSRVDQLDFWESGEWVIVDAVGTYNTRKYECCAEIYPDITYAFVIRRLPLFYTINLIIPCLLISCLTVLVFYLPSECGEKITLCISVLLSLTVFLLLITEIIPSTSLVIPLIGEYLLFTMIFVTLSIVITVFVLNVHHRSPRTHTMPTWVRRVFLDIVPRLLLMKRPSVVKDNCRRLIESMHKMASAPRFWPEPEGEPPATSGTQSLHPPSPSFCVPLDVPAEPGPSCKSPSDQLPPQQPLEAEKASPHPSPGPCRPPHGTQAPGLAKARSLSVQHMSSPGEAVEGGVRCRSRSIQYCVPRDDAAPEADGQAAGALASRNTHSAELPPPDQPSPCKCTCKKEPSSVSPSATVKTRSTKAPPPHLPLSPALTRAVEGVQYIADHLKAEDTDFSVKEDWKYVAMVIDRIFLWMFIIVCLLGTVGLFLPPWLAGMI
T3 sequence (P17787 26-502): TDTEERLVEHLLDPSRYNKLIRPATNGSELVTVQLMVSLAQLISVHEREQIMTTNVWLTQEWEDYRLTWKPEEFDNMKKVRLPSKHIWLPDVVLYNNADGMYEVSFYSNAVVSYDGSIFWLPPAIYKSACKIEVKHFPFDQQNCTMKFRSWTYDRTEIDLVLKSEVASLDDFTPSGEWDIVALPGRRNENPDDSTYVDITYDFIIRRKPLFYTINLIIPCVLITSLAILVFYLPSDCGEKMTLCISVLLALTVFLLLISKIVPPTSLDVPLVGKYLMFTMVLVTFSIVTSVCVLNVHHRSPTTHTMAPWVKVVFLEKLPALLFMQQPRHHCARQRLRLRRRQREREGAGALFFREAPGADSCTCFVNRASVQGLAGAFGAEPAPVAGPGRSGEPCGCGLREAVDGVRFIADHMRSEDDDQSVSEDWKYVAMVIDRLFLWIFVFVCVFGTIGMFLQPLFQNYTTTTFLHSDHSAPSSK
Method: Figure 3 Activation of the human α4β2 neuronal nAChR expressed in tsA201 cells as measured by membrane depolarization using the FlexStation assay. Each point generally is the mean of four separate measurements. All responses were normalized with respect to the response of the cells to 0.5 μM epibatidine. Potency and efficacy estimates from these curves are found in Table 1.
TsA201 cells expressing human α4β2 were maintained in media consisting of Dulbecco’s Modified Eagle medium supplemented with 10% FBS, 100 units/mL penicillin and 100 μg/mL streptomycin, 2 mM L-glutamine, 0.5 mg/mL zeocin and 0.6 mg/mL geneticin [55]. Cells were grown in 75 cm^2 culture flasks, which were housed in a humidified incubator (Fisher Scientific, Atlanta, GA, USA at 37 °C in an atmosphere of 5% CO2. They were grown to around 80–90% confluence after harvesting with 0.25% trypsin and being split weekly at a subcultivation ratio of between 1:6 and 1:10.
(§1) Our experimental protocol was based on the initial study of Fitch et al.. Cells were seeded at a density of roughly 5 × 10^4 to 10^5 cells/well in 96-well flat-bottom black wall culture plates coated with 50 μg /ml poly-D-lysine hydrobromide (Sigma-Aldrich, 70–150 kDa) and grown overnight in 100 μL culture medium. A proprietary membrane potential dye obtained from Molecular Devices (San Diego, CA, USA) was prepared by dissolving one bottle of dye into 30 mL of Hanks Saline (pH = 7.4) containing 20 mM HEPES buffer. The cells were incubated with 100 μL of dye for 30 min at 37 °C prior to the robotically controlled concentration-response experiment. Serial dilutions of a compound for dose-response analysis were prepared in 96-well plates by evaporation of a methanolic stock solution and then reconstituted in the appropriate volume of Hanks saline. Fluid transfer and readings were performed by a FlexStation fluorimeter (Molecular Devices). Excitation and emission wavelengths were set to 530 nm and 565 nm with a cutoff of 550 nm. The first 17 s were used as a basal reading. At 18 s, a test compound was added to determine the EC50, followed by addition of 25 μL KCl (40 mM final concentration) at 160 s to serve as a fluorescence calibrant. Compounds that had no measurable depolarizing activity on the TsA201 cells were then tested for their ability to inhibit a 5 µM control ACh response. Data were fitted and graphed with Prism (GraphPad) to determine the EC50.

[5] = no reference given; cited from earlier work
[6] = biological target: T4, human fetal (TE671 cells) skeletal muscle nAChR (Homo sapiens, UniProt P02708+P07510+Q07001); test: Activation of human fetal skeletal muscle nAChR (TE671 cells), membrane depolarization FlexStation assay; format: cell-based
T4 construct: endogenous in cells; host or cells: TE671 cells (human)
T4 sequence (Q07001 22-517): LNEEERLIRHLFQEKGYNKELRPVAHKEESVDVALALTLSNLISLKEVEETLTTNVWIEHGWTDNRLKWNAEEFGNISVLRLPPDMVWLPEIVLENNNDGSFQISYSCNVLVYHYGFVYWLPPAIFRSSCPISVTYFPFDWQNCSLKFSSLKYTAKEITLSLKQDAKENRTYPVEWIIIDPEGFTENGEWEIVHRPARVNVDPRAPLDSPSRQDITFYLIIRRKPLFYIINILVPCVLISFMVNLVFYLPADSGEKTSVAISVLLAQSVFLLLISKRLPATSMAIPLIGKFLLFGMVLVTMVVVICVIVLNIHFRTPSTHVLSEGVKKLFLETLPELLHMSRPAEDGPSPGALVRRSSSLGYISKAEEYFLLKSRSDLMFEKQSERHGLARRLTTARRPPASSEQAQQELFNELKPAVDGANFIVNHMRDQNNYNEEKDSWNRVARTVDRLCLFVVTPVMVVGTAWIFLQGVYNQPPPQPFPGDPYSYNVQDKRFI
T4 sequence (P02708 21-457): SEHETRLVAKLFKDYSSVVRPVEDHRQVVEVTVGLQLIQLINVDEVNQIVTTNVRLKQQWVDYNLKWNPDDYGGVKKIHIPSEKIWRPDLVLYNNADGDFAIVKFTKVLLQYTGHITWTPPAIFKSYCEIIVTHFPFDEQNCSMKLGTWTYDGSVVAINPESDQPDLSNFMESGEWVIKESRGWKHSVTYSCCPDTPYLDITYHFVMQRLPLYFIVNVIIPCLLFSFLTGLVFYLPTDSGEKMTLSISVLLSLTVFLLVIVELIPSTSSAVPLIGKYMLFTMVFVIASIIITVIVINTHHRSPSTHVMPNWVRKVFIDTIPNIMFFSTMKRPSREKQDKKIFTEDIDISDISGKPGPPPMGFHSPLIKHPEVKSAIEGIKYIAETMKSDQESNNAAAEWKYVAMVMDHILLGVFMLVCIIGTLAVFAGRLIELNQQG
T4 sequence (P07510 23-517): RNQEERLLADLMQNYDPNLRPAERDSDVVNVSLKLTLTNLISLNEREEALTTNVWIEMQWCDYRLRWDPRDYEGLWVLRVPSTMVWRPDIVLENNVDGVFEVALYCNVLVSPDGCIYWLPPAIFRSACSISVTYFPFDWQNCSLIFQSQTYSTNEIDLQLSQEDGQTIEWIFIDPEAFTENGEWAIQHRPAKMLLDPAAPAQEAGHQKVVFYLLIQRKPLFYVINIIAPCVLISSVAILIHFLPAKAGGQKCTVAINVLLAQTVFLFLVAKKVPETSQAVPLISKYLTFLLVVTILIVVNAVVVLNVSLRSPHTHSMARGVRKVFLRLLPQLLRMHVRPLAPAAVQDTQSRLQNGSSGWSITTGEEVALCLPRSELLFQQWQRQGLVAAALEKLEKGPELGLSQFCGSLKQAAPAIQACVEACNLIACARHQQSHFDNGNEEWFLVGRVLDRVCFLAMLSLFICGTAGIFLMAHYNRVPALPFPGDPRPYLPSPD
T4 sequence (P11230 24-501, further chain): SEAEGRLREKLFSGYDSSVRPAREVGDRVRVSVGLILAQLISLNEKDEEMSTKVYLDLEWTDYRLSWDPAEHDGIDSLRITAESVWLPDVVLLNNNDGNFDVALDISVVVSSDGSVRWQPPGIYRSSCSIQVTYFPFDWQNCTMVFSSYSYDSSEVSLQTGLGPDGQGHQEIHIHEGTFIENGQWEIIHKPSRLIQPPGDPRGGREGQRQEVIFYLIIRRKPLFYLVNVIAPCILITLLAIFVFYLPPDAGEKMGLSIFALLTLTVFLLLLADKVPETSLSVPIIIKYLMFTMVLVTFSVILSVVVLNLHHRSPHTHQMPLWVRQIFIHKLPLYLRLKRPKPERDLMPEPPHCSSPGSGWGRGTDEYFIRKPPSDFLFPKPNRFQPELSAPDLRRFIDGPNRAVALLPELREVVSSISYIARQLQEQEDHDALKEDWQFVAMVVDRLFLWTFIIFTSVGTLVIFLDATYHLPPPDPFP
Method: Figure 4 Activation of the human fetal (TE671 cells) skeletal muscle nAChR by the various stable anabaseine analogs measured by membrane depolarization using the FlexStation assay. Each point is generally the mean of four separate measurements. Responses were normalized to the 5 μM epibatidine response. Potency and efficacy estimates from these curves are found in Table 1.
as §1

rat α7 nAChR = biological target: T5, rat α7 nAChR (Rattus norvegicus, UniProt Q05941); test: biochemical; format: binding
T5 construct: from tissue; host or cells: rat brain membranes
T5 sequence (Q05941 23-502): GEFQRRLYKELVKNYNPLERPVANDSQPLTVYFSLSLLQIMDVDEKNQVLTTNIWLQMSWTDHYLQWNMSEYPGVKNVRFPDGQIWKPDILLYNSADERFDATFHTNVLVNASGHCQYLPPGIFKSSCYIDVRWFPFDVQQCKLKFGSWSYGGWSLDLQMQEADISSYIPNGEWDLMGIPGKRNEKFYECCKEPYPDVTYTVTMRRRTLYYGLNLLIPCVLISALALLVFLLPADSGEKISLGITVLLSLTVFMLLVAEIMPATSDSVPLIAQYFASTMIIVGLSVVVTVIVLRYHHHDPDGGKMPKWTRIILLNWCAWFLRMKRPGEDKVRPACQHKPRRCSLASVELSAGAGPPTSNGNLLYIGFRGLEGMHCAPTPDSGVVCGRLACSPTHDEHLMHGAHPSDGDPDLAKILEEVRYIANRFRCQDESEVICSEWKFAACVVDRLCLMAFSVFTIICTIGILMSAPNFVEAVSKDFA

human GABAA receptor = biological target: T6, human GABAA receptor (UniProt P28472+P62813); test: GABAA receptor activation, membrane depolarization FlexStation assay (WSS1 cells); format: cell-based; conditions: human GABAA receptor in HEK-derived WSS1 cells
T6 construct: host or cells: WSS1 cells (HEK cell line)
T6 sequence (P62813 28-455): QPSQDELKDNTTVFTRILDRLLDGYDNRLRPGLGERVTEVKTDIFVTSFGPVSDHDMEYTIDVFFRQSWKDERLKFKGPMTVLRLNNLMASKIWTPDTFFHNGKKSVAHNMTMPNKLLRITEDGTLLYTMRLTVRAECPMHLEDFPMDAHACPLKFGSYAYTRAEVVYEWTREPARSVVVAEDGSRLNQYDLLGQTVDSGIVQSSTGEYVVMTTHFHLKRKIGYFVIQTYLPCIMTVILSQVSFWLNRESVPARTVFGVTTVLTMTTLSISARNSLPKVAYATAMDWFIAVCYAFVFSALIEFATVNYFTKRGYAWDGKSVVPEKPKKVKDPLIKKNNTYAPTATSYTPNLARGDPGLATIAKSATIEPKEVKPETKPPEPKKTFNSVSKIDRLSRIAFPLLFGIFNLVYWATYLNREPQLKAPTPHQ
T6 sequence (P28472 26-473): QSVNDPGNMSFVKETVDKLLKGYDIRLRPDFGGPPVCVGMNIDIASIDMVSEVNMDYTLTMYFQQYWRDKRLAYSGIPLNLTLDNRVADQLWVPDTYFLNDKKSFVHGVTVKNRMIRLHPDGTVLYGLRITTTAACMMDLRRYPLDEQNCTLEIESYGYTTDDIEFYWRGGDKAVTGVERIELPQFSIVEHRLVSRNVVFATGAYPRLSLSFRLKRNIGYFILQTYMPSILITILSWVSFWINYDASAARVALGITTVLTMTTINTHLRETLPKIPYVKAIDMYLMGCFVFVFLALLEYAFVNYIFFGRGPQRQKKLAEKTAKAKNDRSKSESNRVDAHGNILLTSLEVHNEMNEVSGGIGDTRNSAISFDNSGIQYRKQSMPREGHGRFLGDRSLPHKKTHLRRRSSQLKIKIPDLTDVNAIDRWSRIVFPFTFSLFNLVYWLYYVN
T6 sequence (P18508 39-466 partner): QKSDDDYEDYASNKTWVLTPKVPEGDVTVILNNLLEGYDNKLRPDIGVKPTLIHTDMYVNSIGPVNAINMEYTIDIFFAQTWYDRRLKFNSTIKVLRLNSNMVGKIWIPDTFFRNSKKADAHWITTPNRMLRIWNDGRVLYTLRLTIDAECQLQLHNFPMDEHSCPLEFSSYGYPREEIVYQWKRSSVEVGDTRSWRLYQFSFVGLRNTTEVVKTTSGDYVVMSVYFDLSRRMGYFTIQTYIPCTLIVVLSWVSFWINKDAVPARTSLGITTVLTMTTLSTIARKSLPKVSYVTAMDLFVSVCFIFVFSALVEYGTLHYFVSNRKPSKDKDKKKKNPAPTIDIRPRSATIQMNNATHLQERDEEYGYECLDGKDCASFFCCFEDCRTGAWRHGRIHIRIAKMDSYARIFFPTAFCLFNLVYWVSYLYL
Method: Figure 5 Investigation of possible activation of the human GABAA receptor measured by membrane depolarization using a FlexStation assay. Each point is the mean of three separate measurements.
WSS1 cells from ATCC (Manassas, VA, USA) which express functional GABAA receptors were cultured as previously described by Wong et al.. The cells were grown to near confluence and then transferred to black well, clear bottom 96-well assay plates (Corning Incorporated, Corning, NY, USA) 12–18 h prior to the assay. Molecular Devices blue dye (Sunnyvale, CA, USA) was reconstituted as previously described. The WSS1 cells were allowed to come to room temperature, the culture medium was then aspirated, replaced with the blue dye and equilibrated for 30 min before being placed on a FlexStation 3 plate reader (Molecular Devices, Sunnyvale, CA, USA). […] Programmed readings and data analysis were performed as previously described.

[7] = cited from earlier work
rat brain α4β2 nAChRs [8] = biological target: T7, rat brain α4β2 nAChRs (Rattus norvegicus, UniProt P09483+P12390); conditions: read-out: Kd of radioligand with rat brain membranes; cited from earlier work
T7 construct: from tissue; host or cells: whole rat brain membranes

rat brain α4β2 nAChRs [9] = biological target: T7, rat brain α4β2 nAChRs; test: [3H]-methylcarbamylcholine binding to rat brain membranes, pH dependence
Excerpt: Initially, we measured the pH-dependent binding of [^3H]-methylcarbamylcholine ([^3H]-MCC) to rat brain α4β2 nAChRs. In the absence of anabaseine we found a large (approximately 3-fold) enhancement of [^3H]-MCC binding as pH increased from 6.0 to 7.8. While interesting in its own regard, since MCC is permanently ionized, this marked pH dependence of [^3H]-MCC nAChR affinity complicated the analysis of the effect of pH on anabaseine binding, which was indirectly measured by [^3H]-MCC displacement. Anabaseine inhibition of [^3H]-MCC binding at each pH in Figure 2 is expressed with respect to the binding of [^3H]-MCC alone at the same pH, so as to compensate for [^3H]-MCC binding pH dependence. […]
Figure 2 Concentrations of the three major forms of anabaseine as a function of pH as determined by UV spectrophotometry. Left Ordinate: Concentration of each form expressed as % of the total anabaseine concentration. […]
[^3H]-[…] ([^3H]-MCC) binding assays with rat brain membranes were carried out as previously reported with a final concentration of 0.5 nM [^3H]-MCC [8, 54]; 2.8 µM atropine sulfate (Sigma-Aldrich) was added to inhibit binding to muscarinic receptors. […] Nonspecific binding was measured in the presence of 1 mM (S)-nicotine hydrogen tartrate (Sigma-Aldrich). […]

[10] = displacement of [3H]-cytisine, rat brain membranes, read-out: Ki Neuronal nAChR Rat α4β

For `Cl.c1cncc(C2=NCCCN2)c1` [PTHP, 2-(3-pyridyl)-1,4,5,6-tetrahydropyrimidine hydrochloride], the “potency relative to that predicted for the anabaseine cyclic iminium form” value ([1]; from Figure 3, Figure 4 and Table 1) was “approximately 30%”, the Ki (rat brain α4β2 nAChR; [10]) was 0.38 ± 0.07 µM and the fraction ionized ([2]; pH 7.4, predicted) was greater than 99%. The IC50 [3] was 0.47 ± 0.01 µM, the EC50 [4] was 3.64 ± 1.2 µM and the “pKa of amidinium group” value [5] was greater than 10. The EC50 [6] was 1.7 ± 0.3 µM and the Ki (rat α7 nAChR) was 1.54 ± 0.76 µM.

For `c1cncc(C2=NCCC2)c1` [myosmine], the “GABAA receptor agonist activity” value (human GABAA receptor) was “not GABAA agonists; also recorded: no activity was detected”.

For `CNCCCCC(=O)c1cccnc1` [MAPP, 5-methylamino-1-(3-pyridyl)-1-pentanone], the “activity relative to that predicted if the one form was solely active” value [1] is given as no more than 1%, the “concentration of cyclic imine or iminium form (N-methylanabaseine)” value ([7]; in water at physiological pH) is given as no more than 5% and the Ki (rat brain α4β2 nAChR; [10]) is given as 10 µM. The IC50 [3] was greater than 500 µM, the EC50 [4] was greater than 2000 µM and the EC50 [6] was greater than 1000 µM. It also gave a Ki (rat α7 nAChR) greater than 2000 µM.

In the case of `CNC(=O)OCC[N+](C)(C)C` [[^3H]-MCC, [^3H]-methylcarbamylcholine], the Kd (rat brain α4β2 nAChRs [8]) is listed as 0.011 µM.

For `c1ccc(-c2cccnc2)nc1` [2,3′-Bipyridyl, 2,3′-bipyridyl], the “activity relative to that predicted if the one form was solely active” value [1] was no more than 1%, the Ki (rat brain α4β2 nAChR; [10]) was greater than 50 µM and the “fraction of molecules unionized” value ([2]; pH 7.4) was greater than 99.9%. The IC50 [3] was 343 ± 48 µM, the EC50 [4] was greater than 1000 µM and the EC50 [6] was 660 ± 60 µM. It also gave a Ki (rat α7 nAChR) greater than 2300 µM.

For `c1cncc(C2=NCCCC2)c1` [Anabaseine, anabaseine, reference compound], the “pH dependence of inhibition (displacement) of [3H]-MCC binding” value (rat brain α4β2 nAChRs [9]; fixed anabaseine concentration, pH 5.8 to 7.8, relative to [3H]-MCC alone at the same pH) is listed as “did decrease with increased pH”, the “cyclic iminium (I+) form as fraction of total concentration” value ([7]; pH 7.4) is listed as ~ 1/3 and the Ki (rat brain α4β2 nAChR) is listed as 0.096 ± 0.01 µM. The “GABAA receptor agonist activity” value (human GABAA receptor) was “not GABAA agonists; also recorded: no activity was detected”, the IC50 ([3]; read-out: IC50 Neuromuscular nAChR Torpedo Electric Organ) was 0.29 ± 0.18 µM and the EC50 ([4]; tsA201 cells, membrane depolarization, normalized to 0.5 μM epibatidine response, read-out: EC50 Neuronal nAChR Human α4β2) was 2.85 ± 1 µM. It also gave an EC50 ([6]; TE671 cells, membrane depolarization, normalized to 5 μM epibatidine response, read-out: EC50 Neuromuscular nAChR Human TE671) of 1.2 µM and a Ki (rat α7 nAChR; read-out: Ki Neuronal nAChR Rat α7) of 1.87 ± 0.1 µM.

With `[3H]CNC(=O)OCC[N+](C)(C)C` [[^3H]-MCC, [^3H]-methylcarbamylcholine] the “enhancement of binding with increasing pH” value (rat brain α4β2 nAChRs [9]; pH increased from 6.0 to 7.8, absence of anabaseine) was “approximately 3 fold”.
